The values that follow come from PMC7699745, “The Search for New Anticonvulsants in a Group of (2,5-Dioxopyrrolidin-1-yl)(phenyl)Acetamides with Hybrid Structure—Synthesis and In Vivo/In Vitro Studies” (International Journal of Molecular Sciences, 2020).

Broadly, the ED50 is the dose that gives a 50% effect, or the effect in half of the subjects. Usually inhibition stands for the drop in the measured response relative to a control, in per cent. What is called melting point is the temperature, or range, at which the solid turns liquid.

Where two headings read alike, the source gives them in different places.

The subject of series [1] is formalin-induced nociceptive response, mice. In words: Formalin test of tonic pain. It is filed as in vivo. Particulars: for ED50: Mus musculus, ip, i.p. 30 min before test. The procedure:
AEDs are also commonly used in the treatment of neuropathic pain and other central pain conditions. Therefore, with an aim of further pharmacological characterization of compounds described herein, we decided to study their antinociceptive properties in the in vivo assays. […] At first, both aforementioned compounds were tested in the formalin-induced tonic pain model, which is recognized as a valuable screening tool. In this test, the injection of formalin into the plantar surface of the mouse paw produces specific behaviors like paw lifting, flinching, and licking. […] Moreover, it has been reported that formalin induces pathological changes that resemble those observed in nerve injury and neuropathic pain [24]. Thus, this test has been successfully used to assess the analgesic efficacy of a variety of compounds such as opioids, nonsteroidal anti-inflammatory drugs (NSAIDs), corticosteroids, and N-methyl-D-aspartate (NMDA) receptor antagonists, as well as AEDs such as carbamazepine, topiramate, or gabapentin [26, 27].
As mentioned above, we investigated the analgesic properties of two of the most promising and interesting compounds: 4 and 30.
The experimental groups consisted of 6–12 adult male Albino Swiss mice (CD-1, 18–25 g). Each animal was tested only once. Immediately after the assay, the animals were sacrificed by cervical dislocation. Behavioral measurements were observed by trained observers. The in vivo antinociceptive assays were in accordance with Polish regulations and European Union Directive of 22 September 2010 (2010/63/EU). All procedures were carried out according to the rules of the International Council on Laboratory Animal Science (ICLAS) and were approved by the Local Ethical Committee in Cracow, Poland (approval No 104/2015, 111/2016, and 179/2017). The tested substances were suspended in 1% aqueous solution of Tween-80 and were injected i.p. 30 min prior to the test. Control group animals (negative control) were administered with an appropriate amount of vehicle (Tween-80, 1% aqueous solution, i.p.) 30 min prior to the test.
(§1) The experimental in vivo procedures were previously reported for the formalin test; compounds 4 and 30 were tested in three doses—40, 80, 120 mg/kg (4), and 20, 40, 80 mg/kg (30). […] The in vivo procedure for the model of capsaicin-induced nociception was previously reported; the animals were pretreated with vehicle (10 mL/kg, negative control) and the dose–response of investigated compounds was evaluated at 40, 80, 120 mg/kg (4), and 20, 40, 80 mg/kg (30). […]
Data are presented as means ± standard error of the mean (SEM). […] Statistically significant differences between groups were calculated using one-way analysis of variance (ANOVA) and the post hoc Dunnett’s multiple comparison test or two-way analysis of variance (ANOVA). […]

Series [2] has as its system capsaicin-induced nociceptive response, mice. In words: Capsaicin-induced pain model. The format is in vivo.
Description: Capsaicin activates C polymodal fibers and enhances their firing, which contributes to subsequent hyperalgesia. The molecular mechanism of action of capsaicin is the activation of the nonselective cation channel, transient receptor potential vanilloid-1 (TRPV1), which is localized on nociceptive free nerve endings. That induces the release of proinflammatory neuropeptides such as calcitonin gene-related peptide (CGRP), vasoactive intestinal peptide (VIP), and substance P (SP). The phenomenon of the induction of tissue inflammation by the peripheral nervous system is called neurogenic inflammation, and it is involved in the development of inflammatory and neuropathic pain. AEDs such as gabapentin, topiramate, or lamotrigine decrease capsaicin-induced nocifensive behavior [25].
The experimental groups consisted of 6–12 adult male Albino Swiss mice (CD-1, 18–25 g). Each animal was tested only once. […]
as §1

In a further series the target is T1, Cav1.2 channel (Rattus norvegicus, UniProt P22002).
T1 construct: tissue Eurofins (Poitiers, France), contract assay; host or cells: rat cerebral cortex (own knowledge of the vendor's assay)
T1 sequence (P22002 whole entry): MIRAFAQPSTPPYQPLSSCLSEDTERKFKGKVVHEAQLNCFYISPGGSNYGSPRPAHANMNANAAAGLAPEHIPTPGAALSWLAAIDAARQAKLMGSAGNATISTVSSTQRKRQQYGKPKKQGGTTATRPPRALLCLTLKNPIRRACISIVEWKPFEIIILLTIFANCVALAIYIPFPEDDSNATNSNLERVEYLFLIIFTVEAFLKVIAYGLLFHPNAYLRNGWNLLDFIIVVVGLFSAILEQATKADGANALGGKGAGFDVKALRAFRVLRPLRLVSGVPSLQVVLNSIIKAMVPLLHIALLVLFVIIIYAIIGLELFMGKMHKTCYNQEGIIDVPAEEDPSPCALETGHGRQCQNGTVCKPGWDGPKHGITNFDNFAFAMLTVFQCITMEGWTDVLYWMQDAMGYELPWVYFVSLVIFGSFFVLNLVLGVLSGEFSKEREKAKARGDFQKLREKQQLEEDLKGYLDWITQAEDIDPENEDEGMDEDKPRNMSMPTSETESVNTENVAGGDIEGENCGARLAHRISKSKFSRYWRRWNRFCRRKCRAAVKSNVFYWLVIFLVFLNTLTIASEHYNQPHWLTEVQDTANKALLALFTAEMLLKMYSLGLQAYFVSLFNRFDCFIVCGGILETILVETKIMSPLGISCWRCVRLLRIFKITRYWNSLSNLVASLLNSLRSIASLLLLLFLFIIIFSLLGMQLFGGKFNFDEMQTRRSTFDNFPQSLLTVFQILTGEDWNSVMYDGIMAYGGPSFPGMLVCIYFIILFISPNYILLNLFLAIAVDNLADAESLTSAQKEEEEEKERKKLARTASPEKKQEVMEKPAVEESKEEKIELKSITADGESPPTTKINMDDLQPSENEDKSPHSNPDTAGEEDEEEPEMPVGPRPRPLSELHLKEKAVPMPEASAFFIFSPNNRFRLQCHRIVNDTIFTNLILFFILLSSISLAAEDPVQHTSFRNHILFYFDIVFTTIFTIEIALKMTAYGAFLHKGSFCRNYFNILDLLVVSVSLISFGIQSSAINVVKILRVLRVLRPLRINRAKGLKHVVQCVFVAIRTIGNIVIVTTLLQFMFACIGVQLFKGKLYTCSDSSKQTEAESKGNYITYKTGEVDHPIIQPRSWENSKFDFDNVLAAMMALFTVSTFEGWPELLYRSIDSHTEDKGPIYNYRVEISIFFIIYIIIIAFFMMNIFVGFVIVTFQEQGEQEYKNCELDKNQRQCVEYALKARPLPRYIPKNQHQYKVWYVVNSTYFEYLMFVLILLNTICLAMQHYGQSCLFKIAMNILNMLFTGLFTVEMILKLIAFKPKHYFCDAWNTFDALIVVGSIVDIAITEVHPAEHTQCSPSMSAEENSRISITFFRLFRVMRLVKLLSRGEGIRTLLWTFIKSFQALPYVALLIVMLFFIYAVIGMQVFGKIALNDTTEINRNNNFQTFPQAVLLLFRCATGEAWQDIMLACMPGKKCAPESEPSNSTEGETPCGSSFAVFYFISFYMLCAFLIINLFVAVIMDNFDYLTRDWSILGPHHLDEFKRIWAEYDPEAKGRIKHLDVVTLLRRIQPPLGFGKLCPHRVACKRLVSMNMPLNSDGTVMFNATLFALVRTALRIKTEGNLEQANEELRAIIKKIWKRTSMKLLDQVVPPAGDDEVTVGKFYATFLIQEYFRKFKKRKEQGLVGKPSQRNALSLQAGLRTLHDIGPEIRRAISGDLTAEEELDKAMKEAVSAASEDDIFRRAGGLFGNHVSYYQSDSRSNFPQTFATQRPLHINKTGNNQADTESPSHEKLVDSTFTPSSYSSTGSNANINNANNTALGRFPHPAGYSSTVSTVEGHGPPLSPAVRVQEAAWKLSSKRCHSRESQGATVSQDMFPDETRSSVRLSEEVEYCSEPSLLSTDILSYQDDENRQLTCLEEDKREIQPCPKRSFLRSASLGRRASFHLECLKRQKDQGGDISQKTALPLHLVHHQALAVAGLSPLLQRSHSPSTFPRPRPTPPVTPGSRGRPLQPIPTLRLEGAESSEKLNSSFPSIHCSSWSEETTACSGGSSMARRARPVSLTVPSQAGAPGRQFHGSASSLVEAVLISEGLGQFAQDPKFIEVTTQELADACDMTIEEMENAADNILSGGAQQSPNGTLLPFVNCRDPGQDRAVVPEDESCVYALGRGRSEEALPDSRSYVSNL
T1 sequence (P54287 whole entry partner): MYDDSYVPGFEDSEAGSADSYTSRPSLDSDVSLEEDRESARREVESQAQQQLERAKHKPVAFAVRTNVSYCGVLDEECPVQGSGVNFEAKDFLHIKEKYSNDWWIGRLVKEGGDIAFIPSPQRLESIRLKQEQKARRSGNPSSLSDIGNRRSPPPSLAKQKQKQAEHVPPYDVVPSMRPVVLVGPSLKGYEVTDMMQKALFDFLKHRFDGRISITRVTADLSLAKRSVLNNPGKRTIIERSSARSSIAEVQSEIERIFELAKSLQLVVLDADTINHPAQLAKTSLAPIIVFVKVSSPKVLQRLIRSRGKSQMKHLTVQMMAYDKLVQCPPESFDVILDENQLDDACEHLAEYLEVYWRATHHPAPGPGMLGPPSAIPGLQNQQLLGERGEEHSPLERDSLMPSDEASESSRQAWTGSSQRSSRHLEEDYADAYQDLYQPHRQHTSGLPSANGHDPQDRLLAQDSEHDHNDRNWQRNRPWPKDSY
T1 sequence (P54290 25-944 partner limits assumed): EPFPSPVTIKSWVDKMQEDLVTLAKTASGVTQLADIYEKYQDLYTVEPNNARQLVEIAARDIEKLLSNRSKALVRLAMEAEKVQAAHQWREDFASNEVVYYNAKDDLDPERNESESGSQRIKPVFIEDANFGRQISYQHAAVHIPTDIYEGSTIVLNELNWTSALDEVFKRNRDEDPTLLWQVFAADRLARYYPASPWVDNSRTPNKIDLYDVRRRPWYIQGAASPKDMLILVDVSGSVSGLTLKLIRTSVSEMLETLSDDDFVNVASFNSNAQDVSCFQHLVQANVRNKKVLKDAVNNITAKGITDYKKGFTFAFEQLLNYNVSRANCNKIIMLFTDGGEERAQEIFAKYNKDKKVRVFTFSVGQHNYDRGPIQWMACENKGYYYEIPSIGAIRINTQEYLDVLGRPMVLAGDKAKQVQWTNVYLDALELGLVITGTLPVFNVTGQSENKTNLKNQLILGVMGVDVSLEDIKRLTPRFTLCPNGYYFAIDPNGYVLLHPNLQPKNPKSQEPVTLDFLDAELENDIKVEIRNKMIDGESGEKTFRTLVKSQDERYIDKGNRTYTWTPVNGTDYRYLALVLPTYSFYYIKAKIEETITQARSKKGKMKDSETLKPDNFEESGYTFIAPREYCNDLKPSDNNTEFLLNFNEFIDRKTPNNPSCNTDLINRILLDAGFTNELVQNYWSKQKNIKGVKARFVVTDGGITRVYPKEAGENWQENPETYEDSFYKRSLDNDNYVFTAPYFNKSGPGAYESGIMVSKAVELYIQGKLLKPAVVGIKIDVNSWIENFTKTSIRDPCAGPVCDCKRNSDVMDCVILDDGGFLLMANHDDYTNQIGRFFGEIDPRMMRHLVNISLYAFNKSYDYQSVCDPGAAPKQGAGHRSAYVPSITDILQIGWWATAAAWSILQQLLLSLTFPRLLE
T1 sequence (P54290 945-1091 partner limits assumed): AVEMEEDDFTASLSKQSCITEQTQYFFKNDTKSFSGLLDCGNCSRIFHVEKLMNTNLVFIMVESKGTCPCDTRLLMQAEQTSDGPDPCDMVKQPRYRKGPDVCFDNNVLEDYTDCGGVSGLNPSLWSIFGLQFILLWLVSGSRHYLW
In words: Radioligand binding, Cav1.2 channel. Set-up: inhibition: dose or concentration left out as unconfirmed. The conditions noted are these: for inhibition: rat cerebral cortex, read-out: % Inhibition of Control Specific Binding, Cav1.2 Channel (Antagonist Radioligand). The procedure:
Taking into consideration the structural similarities of molecules described in the current manuscript with their chemical prototypes AS-1 and DK-1, the binding studies toward aforementioned molecular targets were performed commercially for several active substances from each subseries (3, 4, 21, 24, 25, 27, 29, and 30). Furthermore, we also tested two other and well-known targets for AEDs, namely, the Cav2.2 (N-type) calcium channel and gamma-aminobutyric acid (GABA)-A receptor. With the aim of excluding potentially dangerous proarrhythmic properties for each compound, their interaction with the potassium (hERG) channel was also tested.
(§2) Binding studies were carried out commercially in Eurofines Laboratories (Poitiers, France). The functional assays were performed in Eurofins Panlabs Discovery Services Taiwan, Ltd. (New Taipei City, Taiwan). All procedures are described elsewhere (for details, see Table S4 in Supplementary Materials).
(§3) Binding studies were carried out commercially in Eurofines Laboratories (Poitiers, France). The
(§4) functional assays were performed in Eurofins Panlabs Discovery Services Taiwan, Ltd. (New Taipei
(§5) City, Taiwan). All procedures are described elsewhere (Table S4).
Table S4. In vitro binding and functional assays.
GABA-A receptor (α1,β2,γ2)
Potassium channel (hERG) 14
(§6) Cav1.2 (h) calcium ion channel cell based antagonist calcium flux assay 16,17

For series [3], the target named is T2, Cav1.2 (h) calcium ion channel (Homo sapiens, UniProt Q13936).
T2 construct: host or cells: HEK-293
In words: Cav1.2 (h) cell-based antagonist calcium flux assay. The method, then: as §2, §3, §4, §5
Table S4. In vitro binding and functional assays. […]
as §6
In general terms: Calcium assays in cells follow changes in intracellular calcium, usually with a dye or a luminescent sensor.

The next series concerns hepatoma HepG2 cells. In words: Hepatotoxicity, MTS cell viability assay. The conditions noted are these: 100 µM, 72 h. It is filed as cell-based. The method, then: The hepatotoxicity assessment was done with use of hepatoma HepG2 cells, which were incubated for 72 h in the presence of 1–100 µM concentrations of 4, 24, and 30. The CellTiter 96® aqueous nonradioactive cell proliferation assay (MTS) purchased from Promega (Madison, WI, USA) was used for determination of cell viability. The absorbance was measured using a microplate reader EnSpire (PerkinElmer, Waltham, MA, USA) at 492 nm. The obtained results confirmed the safety of the investigated series.
These studies were performed on hepatoma HepG2 cells, according to a protocol reported previously
(In general: Formazan colour is commonly taken as a measure of viable cells.)

Where [4] appears, read: phase II 15–30 min, read-out: ED50, formalin test phase II.

Compound `O=C(Nc1ccccc1F)C(c1ccccc1)N1C(=O)CCC1=O` (centres unmarked) [Compound 4, 2-(2,5-Dioxopyrrolidin-1-yl)-N-(2-fluorophenyl)-2-phenylacetamide] showed a melting point of 106.6 to 107.1 °C. Moreover, in series [1] (setting [4]), the ED50 amounted to 98.9 mg/kg. The “attenuation of nociceptive response, formalin test first phase” value in series [1] (i.p., doses 40, 80, 120 mg/kg) is recorded as “statistically significant only at the highest dose of 120 mg/kg”. For the same compound, the “attenuation of nociceptive response in capsaicin-induced pain” value in series [2] (i.p., 120 mg/kg) is 37.9%. Besides, the inhibition on Cav1.2 channel was 5%.
In turn, `O=C(NCCc1cccc(OC(F)(F)F)c1)C(c1ccccc1)N1C(=O)CCC1=O` (centres unmarked) [Compound 30, 2-(2,5-Dioxopyrrolidin-1-yl)-2-phenyl-N-(3-(trifluoromethoxy)phenethyl)acetamide] showed a melting point of 113.3 to 114.2 °C. For the same compound, the ED50 in series [1] (phase I 0–5 min, read-out: ED50, formalin test phase I) came to 21.5 mg/kg. Further, the ED50 in series [1] (setting [4]) turned out to be 24.8 mg/kg. The 50% effect level in series [2] (Mus musculus, ip, i.p. 30 min before test) (ED50) was put at a dose of 35.3 mg/kg. Moreover, the “binding to voltage-gated calcium channels Cav1.2” value on Cav1.2 channel (concentration of 10 µM) was “moderate binding”. Also, the inhibition on Cav1.2 channel amounted to 47.6%. Further, in series [3] (10 µM), the “antagonist properties in cell-based flux studies (Cav1.2)” value was “moderate antagonist properties”. For the same compound, the inhibition at 10 µM in series [3] (HEK293, human recombinant (HEK-293 cells), read-out: % Inhibition of Control Agonist Response, Cav1.2 (h) calcium flux) came to 49%. Moreover, in the series with hepatoma HepG2 cells, the “effect on HepG2 cells viability” value was “statistically significant (p < 0.001) effect on cells viability”.
